Experiments:
Sestrin2-GATOR2 complex [1] = target: T1, Sestrin2-GATOR2 complex (Homo sapiens, UniProt P58004); assay: Amino acids added directly to immunopurified Sestrin2-GATOR2 complexes (immunoblot); type: binding
T1 construct: To isolate the FLAG-WDR24/endogenous-Sestrin2 complex; endogenous in cells; host or cells: HEK-293T cells stably expressing FLAG-WDR24; Sestrin2 and the other GATOR2 subunits are endogenous
T1 sequence (P58004 1-480): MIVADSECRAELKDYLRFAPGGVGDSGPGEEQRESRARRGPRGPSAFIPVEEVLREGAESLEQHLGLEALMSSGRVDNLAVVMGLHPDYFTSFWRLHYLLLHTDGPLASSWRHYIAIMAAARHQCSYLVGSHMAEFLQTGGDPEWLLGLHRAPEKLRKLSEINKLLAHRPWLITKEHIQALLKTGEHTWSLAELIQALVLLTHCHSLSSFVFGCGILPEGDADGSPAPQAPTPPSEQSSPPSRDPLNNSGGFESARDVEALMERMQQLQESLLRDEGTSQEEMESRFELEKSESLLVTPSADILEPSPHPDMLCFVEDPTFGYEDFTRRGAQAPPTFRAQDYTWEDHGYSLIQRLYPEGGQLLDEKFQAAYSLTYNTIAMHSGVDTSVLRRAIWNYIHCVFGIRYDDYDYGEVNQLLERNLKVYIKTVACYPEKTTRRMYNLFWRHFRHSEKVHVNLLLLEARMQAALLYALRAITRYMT
Procedure: (§1) We next tested if leucine acts directly on the Sestrin2-GATOR2 complex.
HEK-293T cells stably expressing FLAG-WDR24 were starved for all amino acids for 50 minutes, lysed and subjected to anti-FLAG immunoprecipitation as described previously. The GATOR2-Sestrin2 complexes immobilized on the agarose beads were washed twice in lysis buffer with 500 mM NaCl, as previously described, and then incubated for 10 minutes in 1 mL of cytosolic buffer with the indicated concentrations of individual amino acids. The amount of GATOR2 and Sestrin2 that remained bound was assayed by SDS-PAGE and immunoblotting as described previously.

Sestrin2-GATOR2 complex [2] = target: T1, Sestrin2-GATOR2 complex; assay: Amino acids added to ice-cold detergent lysates of amino acid-starved HEK-293T cells, FLAG immunoprecipitation; type: binding; settings: ice-cold detergent lysates of HEK-293T cells starved for all amino acids
Procedure: HEK-293T cells stably expressing the FLAG-tagged GATOR2 component WDR24 were starved of all amino acids for 50 minutes. Individual amino acids were added pre-lysis to the cell culture media or post-lysis to cell lysates prior to FLAG immunoprecipitation.
as §1

[3] = target: T2, GATOR2-Sestrin2 interaction (Homo sapiens, UniProt P58004); assay: Sestrin2-GATOR2 interaction in HEK-293T cells after starvation/restimulation (co-immunoprecipitation); type: cell-based
T2 construct: To isolate the FLAG-WDR24/endogenous-Sestrin2 complex; endogenous in cells; host or cells: HEK-293T cells stably expressing FLAG-WDR24; Sestrin2 and the other GATOR2 subunits are endogenous
T2 sequence (P58004 1-480): T1 sequence (P58004 1-480)
Procedure: In order to determine the effect of amino acids on the GATOR2-Sestrin interaction, transfected cells were incubated in amino acid free RPMI for 50 minutes and then stimulated with amino acids for 10 minutes. For glucose starvation, cells were incubated in RPMI media lacking glucose but containing amino acids and dialyzed serum for 50 minutes, followed by a 10 minute restimulation with 5 mM D-Glucose. For insulin deprivation, cells were incubated in RPMI without serum for 50 minutes and restimulated with 1 μg/ml insulin for 10 minutes. Finally, when Torin1 or Rapamycin was used, cells were incubated with 250 nM of each throughout the starvation and restimulation period.
HEK-293T cells stably expressing FLAG-WDR24 or the control protein FLAG-metap2 (as described in Example 1) were starved for leucine, arginine, or all amino acids for 50 minutes. In some samples, cells were re-stimulated with leucine, arginine, or all amino acids for 10 minutes and then FLAG immunoprecipitates prepared from cell lysates. Immunoprecipitates and lysates were analyzed by immunoblotting for indicated proteins. Removal of either leucine or arginine from the cell media inhibited mTORC1 signaling, as indicated by S6K1 phosphorylation, to similar extents. Strikingly, however, only leucine starvation caused Sestrin2 to bind to GATOR2 inducing the interaction as effectively as complete amino acid starvation (FIG. 9A). […] Leucine starvation and stimulation also strongly regulated the interaction of endogenous Sestrin1, but not endogenous Sestrin3, with GATOR2 (Figure not shown).

SMILES: CC(C)C[C@H](N)C(=O)O [leucine]
- effect on the Sestrin2-GATOR2 interaction in vitro (Sestrin2-GATOR2 complex [1]; 300 μM each, added directly to FLAG immunoprecipitates): disrupted the interaction
- EC50 (Sestrin2-GATOR2 complex [1]; added to purified complexes from amino acid-starved cells, equilibrium not attained, relative potency only, read-out: half maximal effect on disruption of the Sestrin2-GATOR2 complex): ~1 µM
- effect on Sestrin2-GATOR2 interaction when added to cell lysates (Sestrin2-GATOR2 complex [2]): abrogated the interaction
- EC50 ([3]; HEK-293T starved of leucine 50 minutes, restimulated 10 minutes, read-out: half-maximal effect on the Sestrin2-GATOR2 interaction in cells): 20 to 40 µM
- effect of re-addition on Sestrin2 binding to GATOR2 in cells ([3]; starved 50 minutes, re-stimulated 10 minutes): rapidly reversed the binding
